Results: patent publication US11040033B2 (Gilead Sciences, Inc., priority 2017, dated 2021)

Target: T1, IDO1 (Homo sapiens, UniProt P14902)
T1 construct: HeLa cells were treated with a test compound in the presence of IFNγ, which induces IDO1 expression; endogenous in cells; host or cells: H1-HeLa cells (ATCC #CRL-1958), induced with IFNγ
Assay: Cell-based (HeLa) assay for measurement of IDO1 inhibition (kynurenine levels in supernatant after IFNγ induction)
Settings: H1-HeLa cells, IFNγ-induced IDO1, 48 hour incubation, kynurenine absorbance at 480 nm; geometric mean of a minimum of four determinations
Method: To measure IDO1 inhibition in tissue culture, HeLa cells were treated with a test compound in the presence of IFNγ, which induces IDO1 expression. Following incubation, cell supernatants were assayed for kynurenine levels, an indicator of IDO1 activity.
H1-HeLa cells (ATCC #CRL-1958) were seeded in 384-well plates (Greiner #82051-282) at a volume […] (Corning #15-018-CM) supplemented with 10% FBS (Corning #35-011-CV) and 1% P/S/G (Corning #30-009-CL) at a density of 1,250 cells/well and incubated overnight at 37° C., 5% CO2/100% humidity. The following day, the test compounds were added in DMSO (0.5% final) at various concentrations, and IDO1 was inducibly expressed by the addition of 50 uL/well of 50 ng/mL of INFγ(Peprotech #300-02) in cell plating media. As a positive control, 50 uL of the cell plating media without IFNγ was added to several wells. Following a 48 hour incubation, the plates were spun down at 1,200 RPM for 5 min at 10° C. 65 μL/well of the supernatant was then transferred to new 384-well plates (Thermo #262160) that contained 10 uL/well of 30% TCA (Sigma #T0699), and the plates were sealed and incubated at 60° C. for 30 min. The plates were then centrifuged for 15 min at 2,000 RPM at 10° C. 40 μL/well of the supernatant was transferred to new 384-well plates (Thermo #262160) and was reacted with 40 μL/well of 2% (w/v) p-dimethylaminobenzaldehyde (Sigma #156417) in glacial acetic acid (Sigma #A6283). The reaction was incubated at room temperature for 10 min and absorbance at 480 nm was read using a PerkinElmer Envision plate reader.
Data in Table 1 were normalized based on positive (−IFNγ) and negative (+IFNγ) controls and EC50 values were calculated from the fit of the dose-response curves to a four-parameter equation. All EC50 values represent geometric mean values of a minimum of four determinations. These assays generally produced results within 2-fold of the reported mean.

T1 sequence (P14902 whole entry): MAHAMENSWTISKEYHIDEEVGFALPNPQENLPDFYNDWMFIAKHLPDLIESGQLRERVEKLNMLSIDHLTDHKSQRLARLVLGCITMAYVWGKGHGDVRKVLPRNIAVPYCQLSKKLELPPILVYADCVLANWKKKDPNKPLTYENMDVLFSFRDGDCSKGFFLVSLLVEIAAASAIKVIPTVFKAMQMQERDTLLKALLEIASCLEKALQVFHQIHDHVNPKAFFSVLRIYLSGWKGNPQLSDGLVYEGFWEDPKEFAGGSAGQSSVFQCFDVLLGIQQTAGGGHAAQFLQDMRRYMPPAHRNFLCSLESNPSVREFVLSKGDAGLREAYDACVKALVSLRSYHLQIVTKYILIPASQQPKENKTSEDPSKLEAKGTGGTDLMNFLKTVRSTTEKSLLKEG

Row | Structure (SMILES) | EC50
1 | Cc1ccc(-c2cccn3c(-c4cccc(F)c4F)ncc23)nc1C(=O)Nc1ccc(F)cc1 [Example 57] | 76.8 nM
2 | Cc1ncc(-c2cccn3c(-c4cccc(F)c4F)ncc23)cc1-c1nc2ccccc2[nH]1 [Example 99, 2-(5-(3-(2,3-difluorophenyl)imidazo[1,5-a]pyridin-8-yl)-2-methylpyridin-3-yl)-1H-benzo[d]imidazole] | 59.9 nM
3 | Cc1ncc(-c2cccn3c(-c4cccc(Cl)c4F)ncc23)cc1C(=O)Nc1ccc(F)cc1 [Example 88] | 49.5 nM
4 | NC(=O)c1ccnc(-c2ncc3c(-c4ccc(C(F)(F)F)c(C(=O)Nc5ccc(F)cc5)c4)cccn23)c1 [Example 6, 2-(8-(3-((4-fluorophenyl)carbamoyl)-4-(trifluoromethyl)phenyl)imidazo[1,5-a]pyridin-3-yl)isonicotinamide] | 1330 nM
5 | Cc1ncc(-c2cccn3c(-c4cccc(F)c4F)ncc23)cc1C(=O)Nc1ccc(Cl)cc1F [Example 64, N-(4-chloro-2-fluorophenyl)-5-(3-(2,3-difluorophenyl)imidazo[1,5-a]pyridin-8-yl)-2-methylnicotinamide] | 24.3 nM
6 | O=C(Nc1ccc(F)cc1)c1cc(-c2cccn3c(-c4cccnn4)ncc23)ccc1C(F)(F)F [Example 17, N-(4-fluorophenyl)-5-(3-(pyridazin-3-yl)imidazo[1,5-a]pyridin-8-yl)-2-(trifluoromethyl)benzamide] | 237 nM
7 | O=C(Nc1ccc(F)cc1)c1cc(-c2cccn3c(-c4cnccn4)ncc23)ccc1C(F)(F)F [Example 36] | 25.2 nM
8 | Cc1ncc(-c2cccn3c(-c4cc(F)cc(F)c4)ncc23)cc1C(=O)Nc1ccc(F)cc1 [Example 27, 5-(3-(3,5-difluorophenyl)imidazo[1,5-a]pyridin-8-yl)-N-(4-fluorophenyl)-2-methylnicotinamide] | 61.7 nM
9 | Cc1ncc(-c2cccn3c(-c4cccc(F)c4F)cnc23)cc1C(=O)Nc1ccc(Cl)cc1 [Example 61, N-(4-chlorophenyl)-5-(3-(2,3-difluorophenyl)imidazo[1,2-a]pyridin-8-yl)-2-methylnicotinamide] | 29.9 nM
10 | Cc1ncc(-c2cccn3c(-c4cccc(F)c4C(F)(F)F)ncc23)cc1C(=O)Nc1ccc(F)cc1 [Example 18, 5-(3-(3-fluoro-2-(trifluoromethyl)phenyl)imidazo[1,5-a]pyridin-8-yl)-N-(4-fluorophenyl)-2-methylnicotinamide] | 211 nM
11 | Cc1ncc(-c2cccn3c(-c4cccc(F)c4F)nc(Cl)c23)cc1C(=O)Nc1ccc(F)cc1 [Example 79, 5-(1-chloro-3-(2,3-difluorophenyl)imidazo[1,5-a]pyridin-8-yl)-N-(4-fluorophenyl)-2-methylnicotinamide] | 118 nM
12 | Cc1ccccc1-c1ncc2c(-c3cnc(C)c(C(=O)Nc4ccc(F)cc4)c3)cccn12 [Example 29, N-(4-fluorophenyl)-2-methyl-5-(3-(o-tolyl)imidazo[1,5-a]pyridin-8-yl)nicotinamide] | 44.7 nM
13 | Cc1nc(-c2cccc(F)c2F)n2cccc(-c3ccc(C(F)(F)F)c(C(=O)Nc4ccc(F)cc4)c3)c12 [Example 44, 5-(3-(2,3-difluorophenyl)-1-methylimidazo[1,5-a]pyridin-8-yl)-N-(4-fluorophenyl)-2-(trifluoromethyl)benzamide] | 16.9 nM
14 | Cc1ncc(-c2cccn3c(-c4cccc(F)c4F)ncc23)cc1C(=O)Nc1ccccc1 [Example 66, 5-(3-(2,3-difluorophenyl)imidazo[1,5-a]pyridin-8-yl)-2-methyl-N-phenylnicotinamide] | 15.3 nM
15 | Cc1ccc(-c2cccn3c(-c4ccc(F)cc4C)nnc23)cc1C(=O)Nc1ccc(F)cc1 [Example 5, 5-(3-(4-fluoro-2-methylphenyl)-[1,2,4]triazolo[4,3-a]pyridin-8-yl)-N-(4-fluorophenyl)-2-methylbenzamide] | 1410 nM
16 | Cc1ncc(-c2cccn3c(-c4cc(F)ccc4F)ncc23)cc1C(=O)Nc1ccc(F)cc1 [Example 30] | 39 nM
17 | O=C(Nc1ccc(F)cc1)c1cccc(-c2cccn3c(-c4cccc(F)c4F)ncc23)n1 [Example 83, 6-(3-(2,3-difluorophenyl)imidazo[1,5-a]pyridin-8-yl)-N-(4-fluorophenyl)picolinamide] | 207 nM

Row | Structure (SMILES) | EC50
18 | O=C(Nc1ccc(F)cc1)c1cc(-c2cccn3c(-c4cccc(F)c4)ncc23)ccc1C(F)(F)F [Example 39, N-(4-fluorophenyl)-5-(3-(3-fluorophenyl)imidazo[1,5-a]pyridin-8-yl)-2-(trifluoromethyl)benzamide] | 23.3 nM
19 | Cc1ncc(-c2cccn3c(-c4ccc(F)cc4F)ncc23)cc1C(=O)Nc1ccc(F)cc1 [Example 89, 5-(3-(2,4-difluorophenyl)imidazo[1,5-a]pyridin-8-yl)-N-(4-fluorophenyl)-2-methylnicotinamide] | 30.6 nM
20 | O=C(Nc1ccc(F)cc1)c1cc(-c2cccn3c(-c4cccc(F)c4F)ncc23)ccc1OC(F)(F)F [Example 55] | 15 nM
21 | O=C(Nc1ccc(F)cc1)c1nc(-c2cccn3c(-c4cccc(F)c4F)ncc23)ccc1C(F)(F)F [Example 38, 6-(3-(2,3-difluorophenyl)imidazo[1,5-a]pyridin-8-yl)-N-(4-fluorophenyl)-3-(trifluoromethyl)picolinamide] | 23.8 nM
22 | O=C(Nc1ccc(F)cc1)c1cc(-c2cccn3c(-c4cccnc4)ncc23)ccc1C(F)(F)F [Example 31, N-(4-fluorophenyl)-5-(3-(pyridin-3-yl)imidazo[1,5-a]pyridin-8-yl)-2-(trifluoromethyl)benzamide] | 38.3 nM
23 | Cc1ccc(-c2cccn3c(-c4ncco4)ncc23)cc1C(=O)Nc1ccc(F)cc1 [Example 40, N-(4-fluorophenyl)-2-methyl-5-(3-(oxazol-2-yl)imidazo[1,5-a]pyridin-8-yl)benzamide] | 23.1 nM
24 | O=C(Nc1ccc(F)cc1)c1cc(-c2cccn3c(-c4cccc(F)c4F)ncc23)ccc1C1CC1 [Example 62, 2-cyclopropyl-5-(3-(2,3-difluorophenyl)imidazo[1,5-a]pyridin-8-yl)-N-(4-fluorophenyl)benzamide] | 15.2 nM
25 | Fc1ccc2[nH]c(-c3cc(-c4cccn5c(-c6cccc(F)c6F)ncc45)ccc3C(F)(F)F)nc2c1 [Example 95, 2-(5-(3-(2,3-difluorophenyl)imidazo[1,5-a]pyridin-8-yl)-2-(trifluoromethyl)phenyl)-5-fluoro-1H-benzo[d]imidazole] | 24.3 nM
26 | Cc1ncc(-c2cccn3c(-c4cccc(Cl)c4)ncc23)cc1C(=O)Nc1ccc(F)cc1 [Example 81, 5-(3-(3-chlorophenyl)imidazo[1,5-a]pyridin-8-yl)-N-(4-fluorophenyl)-2-methylnicotinamide] | 235 nM
27 | Cc1ncc(-c2cccn3c(C4CCOCC4)ncc23)cc1C(=O)Nc1ccc(F)cc1 [Example 75, N-(4-fluorophenyl)-2-methyl-5-(3-(tetrahydro-2H-pyran-4-yl)imidazo[1,5-a]pyridin-8-yl)nicotinamide] | 591 nM
28 | Cc1ncc(-c2cccn3c(-c4cccc(F)c4F)ncc23)cc1C(=O)Nc1ccc(OC(F)F)cc1 [Example 67, N-(4-(difluoromethoxy)phenyl)-5-(3-(2,3-difluorophenyl)imidazo[1,5-a]pyridin-8-yl)-2-methylnicotinamide] | 79.5 nM
29 | Cc1ncc(-c2ccnn3c(-c4cccc(F)c4F)nnc23)cc1C(=O)Nc1ccc(F)cc1 [Example 50, 5-(3-(2,3-difluorophenyl)-[1,2,4]triazolo[4,3-b]pyridazin-8-yl)-N-(4-fluorophenyl)-2-methylnicotinamide] | 1890 nM
30 | Cc1ccc(-c2cccn3c(-c4cnnn4C)ncc23)cc1C(=O)Nc1ccc(F)cc1 [Example 3, N-(4-fluorophenyl)-2-methyl-5-(3-(1-methyl-1H-1,2,3-triazol-5-yl)imidazo[1,5-a]pyridin-8-yl)benzamide] | 2190 nM
31 | O=C(Nc1ccc(F)cc1)c1cc(-c2cccn3c(-c4cccc(F)c4F)ncc23)ncc1C(F)(F)F [Example 28, 2-(3-(2,3-difluorophenyl)imidazo[1,5-a]pyridin-8-yl)-N-(4-fluorophenyl)-5-(trifluoromethyl)isonicotinamide] | 57.9 nM
32 | O=C(Nc1ccc(F)cc1)c1cc(-c2cccn3c(-c4cccc(F)c4F)ncc23)cnc1N1CCC1 [Example 94, 2-(azetidin-1-yl)-5-(3-(2,3-difluorophenyl)imidazo[1,5-a]pyridin-8-yl)-N-(4-fluorophenyl)nicotinamide] | 124 nM
33 | Cc1ncc(-c2cccn3c(-c4ccccc4Cl)ncc23)cc1C(=O)Nc1ccc(F)cc1 [Example 80, 5-(3-(2-chlorophenyl)imidazo[1,5-a]pyridin-8-yl)-N-(4-fluorophenyl)-2-methylnicotinamide] | 19.3 nM
